Test results: patent US20180353501A1 (Arvinas, Inc., priority 2017, published 2018)
pKd: −log10 of the molar value. Values joined by “and” are separate entries in the source; they are usually repeats but may differ in a detail not shown here. Equal values may be shown once. Read-outs that look alike come from different tables or passages of the source.

Assays:
[1] = target: T1, p38α (Homo sapiens, UniProt Q16539); experiment: Cellular assay of target protein degradation (MDA-MB-231 cells, ELISA); format: cell-based
T1 construct: selectively degrades p38α, whereas exemplary PROTAC 46 (10-atom linker, phenyl attachment) selectively degrades p38δ in MDA-MB-231 cells; endogenous in cells; host or cells: MDA-MB-231
T1 sequence (Q16539 whole entry): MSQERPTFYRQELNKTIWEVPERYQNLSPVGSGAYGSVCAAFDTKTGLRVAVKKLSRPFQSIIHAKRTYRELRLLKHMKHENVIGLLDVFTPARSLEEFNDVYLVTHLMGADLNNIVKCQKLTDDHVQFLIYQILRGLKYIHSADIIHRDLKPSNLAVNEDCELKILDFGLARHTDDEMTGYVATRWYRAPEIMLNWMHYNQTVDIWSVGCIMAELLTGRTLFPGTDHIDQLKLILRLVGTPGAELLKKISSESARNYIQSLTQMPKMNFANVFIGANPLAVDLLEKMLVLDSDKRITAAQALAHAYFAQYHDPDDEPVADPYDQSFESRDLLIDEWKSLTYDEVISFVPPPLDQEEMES
Method: Protocol of the cellular assay of target protein degradation (MDA-MB-231 cells, ELISA).
For detection Cell Signaling PathScan Sandwich ELISA Catalog#12850 was used. MDA-MB-231 cells and […] were cultured in ATCC DMEM+ATCC FBS and plated 40,000/well 100 μl/well in RPMI P/S with 5% CSS Omega (bovine) serum into a 96 well plate. The cells were grown for a minimum of 3 days, dosed with compounds in 0.1% DMSO (diluted with 5% CSS) and incubated with aspiration for 4 hours. 100 μl of 1× Cell Signaling lysis buffer #9803 (36 mL dH2O+4 mL Cell Signaling lysis buffer) was added. The incubation was placed on cold room shaker for 10 minutes at speed 8-9.5 μl to 100 μL of Diluent was transferred to ELISA plate (0.15 μg/mL-0.075 μg/mL) and stored at 4° C. overnight on cold room shaker speed 5 (gentle swirl) and then shaken next morning at 37° C. for 30 minutes. The preparation was washed 4×200 μl with ELISA wash buffer and aspirated with eight-channel aspirator. 100 μl/well of target protein detection antibody was added after, which the preparation was covered and shaken at 37° C. for 1 hour. 100 μl TMB was added, and the mixture was shaken for 5 min while under observation. When TMB turned light blue, 100 μl of Stop solution was added, and the mixture was shaken and read at 450 nm. Also read at 562 nm for background subtraction.

[2] = target: T2, p38δ:PROTAC:VHL ternary complex (Homo sapiens, UniProt O15264+P40337); experiment: SPR ternary complex affinity and kinetics; format: binding; details: for pKd: equimolar p38δ:PROTAC injected onto immobilized GST-VBC
T2 construct: encoding a region spanning amino acids 1-365 was PCR-amplified; His6 (N); made in house; host or cells: E. coli (BL21-CodonPlus(DE3)-RIPL for p38δ; BL21(DE3) for GST-VBC)
T2 sequence (O15264 whole entry, the tested form may be a part): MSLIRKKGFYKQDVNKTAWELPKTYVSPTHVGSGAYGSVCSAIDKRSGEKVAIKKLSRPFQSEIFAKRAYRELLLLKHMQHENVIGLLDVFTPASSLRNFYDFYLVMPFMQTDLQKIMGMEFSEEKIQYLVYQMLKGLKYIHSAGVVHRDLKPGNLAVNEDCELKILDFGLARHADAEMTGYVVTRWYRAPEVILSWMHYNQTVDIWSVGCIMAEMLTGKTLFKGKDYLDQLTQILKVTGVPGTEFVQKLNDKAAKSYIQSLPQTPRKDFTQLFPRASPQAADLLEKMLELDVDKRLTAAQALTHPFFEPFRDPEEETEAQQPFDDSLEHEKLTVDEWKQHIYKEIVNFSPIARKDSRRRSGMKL
T2 sequence (P40337 whole entry, the tested form may be a part): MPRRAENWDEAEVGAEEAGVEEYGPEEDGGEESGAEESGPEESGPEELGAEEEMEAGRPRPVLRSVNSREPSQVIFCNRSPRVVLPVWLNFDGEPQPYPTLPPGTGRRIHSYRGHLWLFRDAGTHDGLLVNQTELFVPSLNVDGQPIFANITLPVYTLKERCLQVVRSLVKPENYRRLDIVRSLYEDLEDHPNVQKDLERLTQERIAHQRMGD
T2 sequence (Q15370 whole entry partner, the tested form may be a part): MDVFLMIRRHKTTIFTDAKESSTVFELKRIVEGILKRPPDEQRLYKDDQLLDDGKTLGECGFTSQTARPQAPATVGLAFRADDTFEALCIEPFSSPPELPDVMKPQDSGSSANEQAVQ
T2 sequence (Q15369 whole entry partner, the tested form may be a part): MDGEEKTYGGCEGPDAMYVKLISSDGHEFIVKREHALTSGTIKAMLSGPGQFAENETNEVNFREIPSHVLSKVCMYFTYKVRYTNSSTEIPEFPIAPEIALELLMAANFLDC
Method: (§1) FIGS. 16A, 16B, and 16C. SPR curves assessing binary and ternary interactions. […] (C) SPR kinetic evaluation of p38δ:compound 46:VHL and p38δ:compound 50:VHL ternary complex interactions. Equimolar p38δ:PROTAC mixtures were injected onto immobilized GST-VBC and allowed to dissociate overtime. […] See Table 12 for a summary of the binary and ternary affinity and kinetic measurements.
Next, with the same setup, equimolar p38δ:PROTAC dilutions were successively injected onto immobilized VHL for 60 seconds, prior to monitoring complex dissociation for the remaining 300 seconds. This SPR strategy enabled us to determine effective ternary affinities for a given p38δ:PROTAC:VHL complex and compare the relative affinity change that occurs between VHL:PROTAC when p38δ is present in the mixture. […] This “enhanced” composite affinity is likely due to the additional PPIs between VHL and p38δ when in the presence of exemplary compound 46.
SPR experiments were conducted on a Biacore 3000 instrument (GE Healthcare) at room temperature. GST antibody was immobilized through direct amination onto a carboxymethylated dextran surface (CM5) and GST-VBC was captured on the CM5 surface. This prepared surface was equilibrated over three hours in running buffer (10 mM HEPES buffer pH 7.4, 150 mM NaCl, 0.4 mg mL^−1 BSA, 0.005% P20, 2% DMSO). All compounds were prepared in 100% DMSO stock plates with a top concentration of 500 μM in a 3× serial dilution. Exemplary compounds were transferred from the stock plate to the assay plate and diluted into running buffer without DMSO. Equimolar concentration of target protein was added to corresponding compound wells. All exemplary compounds were run as a twelve point-concentration series with a final assay top concentration of 50 μM to measure p38δ:PROTAC and VHL:PROTAC binding and top concentration of 5 μM to measure p38δ:PROTAC:VHL binding. All exemplary compounds were injected for 60 seconds and allowed to dissociate for 300 seconds. Data analysis was performed in Scrubber 2 (BioLogic Software). Blanks from reference flow cell containing immobilized GST-VBC were subtracted to correct for noise and data was solvent-corrected against a standard DMSO curve.

[3] = target: T3, VHL (GST-VBC) (Homo sapiens, UniProt P40337); experiment: SPR binary affinity, PROTAC on immobilized GST-VBC; format: binding
T3 construct: made in house; host or cells: E. coli BL21(DE3)
T3 sequence (P40337 whole entry): as the sequence (P40337 whole entry, the tested form may be a part) above
T3 sequence (Q15370 whole entry partner): as the sequence (Q15370 whole entry partner, the tested form may be a part) above
T3 sequence (Q15369 whole entry partner): as the sequence (Q15369 whole entry partner, the tested form may be a part) above
Method: as §1
Next, with the same setup, equimolar p38δ:PROTAC dilutions were successively injected onto immobilized VHL for 60 seconds, prior to monitoring complex dissociation for the remaining 300 seconds. […]
For the expression of GST-tagged VHL:Elongin B:Elongin C (herein referred to as GST-VHL), wild-type human VHL, Elongin B, and Elongin C were co-expressed in E. coli. […] Eluted protein was assessed for identity and purity via coomassie staining of sample run on an SDS-PAGE gel and pure elutions were pooled, concentrated, and diluted in ion-exchange buffer A (30 mM Tris pH 8.0, 5% glycerol, 1 mM DTT) until the salt concentration was 50 mM, before loading onto a Mono Q 5/50 GL column (GE Life Sciences). […] Fractions were then assessed for purity via coomassie, pooled, concentrated, and run on a Superdex-200 column (GE Life Sciences) using size-exclusion buffer (30 mM Tris pH 8.0, 100 mM NaCl, 10% glycerol, 1 mM DTT). […]

[4] = SPR, immobilized GST-VBC, listed as Ex. 50

leftward shift of ternary affinity from the VHL:PROTAC binary affinity ([2]; SPR) [fold]	koff ([2]; SPR, immobilized GST-VBC) [s⁻¹]	p38δ:PROTAC:VHL kon ([2]; SPR, immobilized GST-VBC, listed as Ex. 46) [M⁻¹ s⁻¹]	pKd ([2]; read-out: p38δ:PROTAC:VHL Kd)	Structure (SMILES)	DC50 [1] [nM]	Dmax [1] [%]	kon ([2]; SPR, immobilized GST-VBC) [M⁻¹ s⁻¹]	residence time ([2]; SPR, immobilized GST-VBC) [min]	pKd [3]	off-rate quicker than the p38δ:compound 46:VHL complex ([2]; SPR) [fold]	residence time shorter than the p38δ:compound 46:VHL complex ([2]; SPR) [fold]	ternary affinity weaker than the exemplary compound 46-induced complex ([2]; SPR) [fold]	p38δ:PROTAC:VHL koff [2, 4] [s⁻¹]	p38δ:PROTAC:VHL kon [2, 4] [M⁻¹ s⁻¹]	pKd ([2]; read-out: p38δ:PROTAC:VHL affinity)
~8	0.0175	39621	6.36	COc1cc2c(Oc3ccc(NC(=O)C4(C(=O)Nc5ccc(F)cc5)CC4)cc3F)ccnc2cc1OCCOCCOCCOc1cc(-c2scnc2C)ccc1CNC(=O)[C@@H]1C[C@@H](O)CN1C(=O)[C@H](C(C)C)N1Cc2ccccc2C1=O [compound 46]	> 5000	33	39600	5.5	5.46						
				COc1cc2c(Oc3ccc(NC(=O)C4(C(=O)Nc5ccc(F)cc5)CC4)cc3F)ccnc2cc1OCCCCOCCCCOCC(=O)N[C@H](C(=O)N1C[C@H](O)C[C@H]1C(=O)NCc1ccc(-c2scnc2C)cc1)C(C)(C)C [compound 50, N-(3-fluoro-4-((7-(4-(4-(2-(((S)-1-((2S,4R)-4-hydroxy-2-((4-(4-methylthiazol-5-yl)benzyl)carbamoyl)pyrrolidin-1-yl)-3,3-dimethyl-1-oxobutan-2-yl)amino)-2-oxoethoxy)butoxy)buto-xy)-6-methoxyquinolin-4-yl)oxy)phenyl)-N-(4-fluorophenyl)cyclopropane-1,1-dicarboxa-mide]	9.5	99	70100	1.33	5.30	~5	~4	~3	0.072	70119	5.92 and < 6.00
